The conditions of data set [1]: comparator rosiglitazone maleate.
Data set [2] in a line: Exposure of Form A to different relative humidities, water content by Karl Fischer. Format: physicochemical. The method, then: The water content is determined by the Karl Fischer method.
5-[[4-[2-(methyl-2-pyridinylamino)ethoxy]phenyl]methyl]-2,4-thiazolidinedione phosphate hydrate in its polymorphic Form A was exposed to different relative humidities for about 24 hours.

Data set [3] is described as follows: Stress test at 80° C. in a closed vial, degradation determined by HPLC. In kind it is physicochemical.

As for `CN(CCOc1ccc(CC2SC(=O)NC2=O)cc1)c1ccccn1.O=P(O)(O)O` (stereo not shown) [Form E, 5-[[4-[2-(methyl-2-pyridinylamino)ethoxy]phenyl]methyl]-2,4-thiazolidinedione phosphate], the “Solubility in water compared to rosiglitazone maleate” value in data set [1] is given as “comparable or even more expressed”.

In the case of `CN(CCOc1ccc(CC2SC(=O)NC2=O)cc1)c1ccccn1.O=P(O)(O)O` (stereo not shown) [Form A, 5-[[4-[2-(methyl-2-pyridinylamino)ethoxy]phenyl]methyl]-2,4-thiazolidinedione phosphate], the “Water content (Karl Fisher)” value is 3.42 % w/w in data set [2] (45% relative humidity, about 24 hours); 3.37 % w/w in data set [2] (63% relative humidity, about 24 hours); 3.58 % w/w in data set [2] (86% relative humidity, about 24 hours); 2.8 % w/w in data set [2] (Initial, before exposure to humidity). Besides, the “Stability (general statement)” value in data set [3] was “good stability”. Moreover, the “Degradation after stress test as determined by HPLC” value in data set [3] (80° C., about 160 hours, closed vial) is on record as “no degradation”.

The values are drawn from patent US20080319024A1, “Rosiglitazone Phosphate and Polymorphic Forms” (priority 2004, published 2008).
